The results in this text go back to publication PMC8151276, “An Integrated Approach toward NanoBRET Tracers for Analysis of GPCR Ligand Engagement” (Molecules, 2021).

The target in assay [1] is T1, CNR2 (Homo sapiens, UniProt P34972).
T1 construct: purchased Promega (in-house HiBiT-GPCR construct library, NanoBRET)
Description: NanoBRET screen HiBiT-CNR2 in HEK293. The format is binding. The following applies: CNR2. The procedure: (§1) Each tracer candidate was screened across the entire library of HiBiT-GPCR constructs using NanoBRET as the detection modality. As depicted in Figure 4A, the specificity of interactions was evaluated through decrease in BRET due to competitive displacement of a bound tracer by excess parental compound. Each tracer was analyzed for binding to each HiBiT-GPCR fusion in the absence and in the presence of competing parental compound. Briefly, HEK293 cells were transfected with HiBiT-GPCR constructs diluted into promoterless DNA to reduce expression and maximize translocation to the cell surface. Each tracer candidate was then screened at concentrations of 1 μM and 0.1 μM across cells expressing these fusions. Cells were treated for 1.5 h with tracer either alone or in the presence of 20 μM competing parental compound (i.e., control). BRET was measured upon addition of purified LgBiT and subsequent complementation with HiBiT genetically fused to a GPCR. The specificity of interactions was assessed through a decrease in BRET signal due to competitive displacement of the bound tracer. To further gauge the robustness of these interactions, the fold response over the control (i.e., BRETtracer/BRETcontrol) was calculated. We chose a 1.5-fold response, which translates to ≥7-fold signal over noise as the minimal threshold required to score an interaction as positive.
(§2) HiBiT-GPCR DNA constructs were diluted in 10 mM Tris pH 8 to a final concentration of 0.01 μg/μL, arrayed in 96-well plates and stored at −20 °C. For transfection, HEK293 cells were suspended in Opti-MEM (without phenol red) supplemented with 2% fetal bovine serum (Seradigm) and 100 units/mL penicillin–streptomycin (Gibco) at a final concentration of 220,000 cells/mL and dispensed into white 96-well plates at 90 μL/well. Subsequent transfections and screens were carried using an Agilent Bravo Automated Liquid Handling Platform. First, the 96-well HiBiT DNA arrays were diluted 25-fold in Opti-MEM (without serum or phenol red) to a final concentration of 0.0004 μg/μL and 20 μL of the diluted DNAs were transferred into new 96-well plates. Next, promoterless carrier DNA (1 μg/μL) was diluted 25-fold (0.04 μg/μL) and then dispensed into the diluted arrays at 20 μL/well. Following brief mixing, Viafect transfection reagent (Promega) diluted 16-fold into Opti-MEM was dispensed into the plates at 40 μL/well. After mixing by pipetting, plates were incubated for 10 min on the pipetting station deck. The DNA-transfection reagent complexes were then added to plates containing cells. To facilitate the screen, 10 μL of DNA-transfection reagent complexes were added in duplicates to the top 4 and bottom 4 rows, resulting in two identical 48-well arrays per plate. Plates with transfected cells were incubated for 18–20 h at 37 °C/5% CO2. A screen of each tracer across the entire library using two different concentrations requires duplicate plates of transfected cells. Depending on the number of tracers being screened, transfections can be scaled up using the same ratios. The next day, for each tracer, four 20× screening solutions in tracer dilution buffer (Promega) were prepared: two duplicates at final concentration of 20 μM and two duplicates at a final concentration of 2 μM. […] The four resulting solutions were diluted 4-fold in Opti-MEM without serum or phenol red to generate 5× solutions (5 µM and 0.5 µM tracer +/− 100 μM competing compound). To screen the library, a BioTek MultiFlo FX liquid dispenser was used to dispense 22.5 µL of tracer solution to the top 4 rows and 22.5 µL tracer + competing compound solution to the 4 bottom rows. Plates were briefly mixed on an orbital shaker and incubated for 1.5 h at room temperature. […] Plates were briefly mixed on an orbital shaker and incubated for 15 min to allow complementation.
For orientation: BRET reads energy transfer from a luciferase to a nearby fluorophore.

Assay [2] addresses T2, MCHR2 (Homo sapiens, UniProt Q969V1).
T2 construct: purchased Promega (in-house HiBiT-GPCR construct library, NanoBRET)
Description: NanoBRET screen HiBiT-MCHR2 in HEK293. The format is binding. The following applies: listed as amitriptyline-b-2-NB590. How it is done:
as §1, §2

T1 sequence (P34972 whole entry): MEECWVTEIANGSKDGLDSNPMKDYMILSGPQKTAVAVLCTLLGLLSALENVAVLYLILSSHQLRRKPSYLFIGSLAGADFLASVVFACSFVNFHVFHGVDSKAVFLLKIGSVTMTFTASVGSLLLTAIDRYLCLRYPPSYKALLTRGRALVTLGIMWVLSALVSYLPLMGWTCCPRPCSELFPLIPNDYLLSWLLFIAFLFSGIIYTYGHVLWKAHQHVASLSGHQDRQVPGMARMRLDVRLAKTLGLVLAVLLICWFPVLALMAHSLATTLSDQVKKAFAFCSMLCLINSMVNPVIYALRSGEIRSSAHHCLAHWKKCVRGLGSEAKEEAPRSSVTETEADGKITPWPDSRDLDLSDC
T2 sequence (Q969V1 whole entry): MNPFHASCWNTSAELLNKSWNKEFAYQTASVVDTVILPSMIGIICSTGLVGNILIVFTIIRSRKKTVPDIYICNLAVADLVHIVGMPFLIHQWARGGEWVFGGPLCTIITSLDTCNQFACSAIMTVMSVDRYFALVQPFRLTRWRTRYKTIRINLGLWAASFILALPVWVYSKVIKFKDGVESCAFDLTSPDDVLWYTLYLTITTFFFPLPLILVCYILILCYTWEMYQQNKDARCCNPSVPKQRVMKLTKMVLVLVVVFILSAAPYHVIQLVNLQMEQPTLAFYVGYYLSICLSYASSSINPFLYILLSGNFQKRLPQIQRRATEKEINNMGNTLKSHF

For the compound `CN(C)CCC=C1c2ccccc2CCc2ccc(C(=O)NCCNC(=O)CCOCCOCCOCCOCCNC(=O)CCc3ccc4n3[B-](F)(F)[N+]3=C(c5ccc[nH]5)C=CC3=C4)cc21` [Amitriptyline-b-2-NB590], the “NanoBRET Fold Response” value in assay [1] (tracer 0.1μM) is 0.96; in assay [1] (tracer 1μM), 1.05; in assay [2] (tracer at 0.1μM), 0.85; in assay [2] (tracer at 1μM), 0.90.
